This note sets out measurements from ChEMBL document CHEMBL1131515, “2-Substituted-4-methoxybenzimidazole-based PDE4 inhibitors” (Bioorg Med Chem Lett, 1998).

Broadly, the pKi is the negative decadic logarithm of the Ki, by convention in mol/L. Lower therefore signals a high Ki. One may read the IC50 as the concentration at which inhibition is half-maximal. A low value points to greater potency in that assay. A word on the ED50: it is the dose that gives a 50% effect, or the effect in half of the subjects. A word on the bioavailability: it is dose-corrected exposure relative to a reference, in per cent. Read a low bioavailability as little systemic uptake. In general, half-life refers to the time needed for the level to fall by half in the phase considered.

Data set [1] can be described thus: Inhibition of Rolipram binding to PDE4.
The target of data set [2] is Phosphodiesterase 4 (Cavia porcellus). Nature of the data set: Inhibition of PDE4 from guinea pig macrophages.
The species entered for another data set is Mus musculus. Nature of the data set: Inhibition of lipopolysaccharide (LPS) stimulated TNF-alpha release in mice after peroral dose. The data set is classed as functional. Particulars: po.
Data set [3] in a line: Bioavailability in mouse. The data set is classed as ADME, organism-based. The settings on record: in vivo.
Data set [4] is filed under the species Rattus norvegicus. Nature of the data set: Inhibition of streptococcal cell wall(SCW) induced arthritis in rat. Type of data set: functional.
The target of data set [5] is Phosphodiesterase 4 (Cavia porcellus). Nature of the data set: Inhibition of Phosphodiesterase 4 (PDE4) from guinea pig macrophages.
For data set [6], the species on record is Rattus norvegicus. Nature of the data set: Inhibition of streptococcal cell wall(SCW) induced arthritis in rat on peroral dose. The data set is classed as functional. The settings on record: po.
A short description of data set [7]: Rapid plasma clearance of compound was determined. Type of data set: ADME.
A short description of data set [8]: Compound was evaluated for its bioavailability in mice at a dose of 1 mg/kg. Type of data set: ADME, organism-based. Particulars: mouse, in vivo.
The target of the next data set is Phosphodiesterase 4 (Homo sapiens, UniProt P27815+Q08499+Q07343+Q08493). Nature of the data set: Inhibition of Phosphodiesterase 4 (PDE4) from guinea pig macrophages. Type of data set: protein assay, Cavia porcellus. The settings on record: target entry is the homologue from another species.

pKi: −log10 of the molar value.

`COc1ccc(C(=O)Nc2c(Cl)cncc2Cl)c2nc(C3CCCC3)n(C)c12` gave a pKi in data set [1] of 5.00. In data set [2], this molecule registered an IC50 of 4400 nM.

Turning to `COc1ccc(C(=O)Nc2c(Cl)cncc2Cl)c2[nH]c(C3CCCC3)nc12`, the pKi in [1] is 6.27. The IC50 in [2] turned out to be 100 nM.

In [1], `COc1ccc(C(=O)Nc2c(Cl)cncc2Cl)c2c1nc(C1CCCC1)n2C` had a pKi of 6.47. Further, in [2], the IC50 turned out to be 540 nM.

In turn, `COc1ccc(C(=O)Nc2c(Cl)cncc2Cl)c2[nH]c(C(C)C)nc12` registered an ED50 in the data set filed under Mus musculus of 10 mg/kg. In addition, the pKi in [1] was 7.62. In [3], the bioavailability came out at 16%. In [2], this molecule gave an IC50 of 27 nM.

Molecule `COc1ccc(C(=O)Nc2c(Cl)cncc2Cl)c2[nH]c(CCc3ccccc3)nc12` showed a pKi in data set [1] of 7.25. The same molecule gave an IC50 in [2] of 23 nM.

For `COc1ccc(C(=O)Nc2c(Cl)cncc2Cl)cc1OC1CCCC1`, the pKi in [1] was 9.00. Further, the bioavailability in data set [3] was below 5%.

On to `COCc1nc2c(OC)ccc(C(=O)Nc3c(Cl)cncc3Cl)c2[nH]1`, for which the ED50 in the data set listed under Mus musculus came out at 2 mg/kg; in the data set filed under Rattus norvegicus [4], 10 mg/kg. Also, the pKi in [1] is 7.60. The molecule also gave a bioavailability in [3] of 35%.

In data set [1], `COc1ccc(C(=O)Nc2c(Cl)cncc2Cl)c2[nH]c(Cc3ccccc3)nc12` had a pKi of 7.12. Moreover, in data set [2], the IC50 was 25 nM.

Regarding `COc1ccc(C(=O)Nc2c(Cl)cncc2Cl)c2[nH]c(C)nc12`, in [1], the pKi is 6.15. The same molecule had an IC50 in data set [2] of 450 nM.

`COc1ccc(C(=O)Nc2c(Cl)cncc2Cl)c2[nH]c(C3CC3)nc12` showed a pKi in data set [1] of 9.00. The IC50 in data set [2] turned out to be 2 nM.

`COc1ccc(C(=O)Nc2c(Cl)c[n+]([O-])cc2Cl)c2[nH]c(C(C)C)nc12` had an IC50 in data set [5] of 28 nM. The pKi in [1] was 7.62.

In the case of `COCc1nc2c(OC)ccc(C(=O)Nc3c(Cl)c[n+]([O-])cc3Cl)c2[nH]1`, the ED50 in the data set listed under Rattus norvegicus [6] was 5 mg/kg; in the data set listed under Mus musculus, 7 mg/kg. In data set [5], this molecule had an IC50 of 45 nM. Moreover, the pKi in [1] was 7.35. The molecule further showed a half-life in data set [7] of 2.5 h. In data set [8], this molecule yielded a bioavailability of 87%.

As for `OCCN(CCO)c1nc(N2CCCCC2)c2nc(N(CCO)CCO)nc(N3CCCCC3)c2n1` [DIPYRIDAMOLE], the IC50 against Phosphodiesterase 4 was found to be 500 nM. That is a sub-micromolar value.
